Experimental data published in patent publication US8343458B2, “Probes for in vivo targeting of active cysteine proteases” (The Board of Trustees of the Leland Stanford Junior …, priority 2008, dated 2013).
“And” between values parts separate entries of the source, which are not always exact repeats. Equal entries are not always repeated.

What was measured:
Assay type in all cases: in vivo, mouse
C2C12/Ras tumor = assay: MicroPET imaging of C2C12/Ras tumor-bearing mice; conditions: 2 and 24 hours post injection, 5.55 MBq i.v.
Source text: (§1) FIG. 3 is a composite photograph showing mouse uptake of labeled probe, i.e., a series of photographs of imaged mice. For purposes of reproduction, the image is converted to black and white and reversed. Lightest to darkest is a range between 0% ID (injected dose)/g and 1% ID/g. […] Arrows indicate location of tumors.
(§2) We performed micro PET imaging of mice bearing the MDA-MB-435 and C2C12/Ras tumors. The static microPET images (5 or 10-min scan, three tumor bearing mice were used for each study) of ^64Cu-Z-FK(DOTA)-AOMK are illustrated in coronal images of the subcutaneously implanted tumor-bearing mice (FIG. 3). […] The tumor, indicated by the arrow, is not clearly illuminated.
(§3) PET imaging of tumor-bearing mice is performed on a microPET R4 rodent model scanner (Concorde Microsystems Inc, Knoxyille, Tenn.). The mice bearing C2C12/Ras and MDA-MB-435 tumors were injected with 5.55 MBq (150 μCi) of ^64Cu AOMK probe via the tail vein. At different times p.i., the mice were anesthetized with 2% isoflurane, and placed in the prone position and near the center of the field of view of microPET. The 5 or 10-min static scans were obtained and the images were reconstructed by a two-dimensional ordered subsets expectation maximum (OSEM) algorithm.

MDA-MB-435 tumors = assay: Biodistribution in nude mice bearing subcutaneous MDA-MB-435 tumors; conditions: for Biodistribution: Blood / Biodistribution: Bone / Biodistribution: Brain / Biodistribution: Heart / Biodistribution: Intestines / Biodistribution: Kidney / Biodistribution: Liver / Biodistribution: Lung / Biodistribution: Muscle / Biodistribution: Pancreas / Biodistribution: Spleen / Biodistribution: Stomach / Biodistribution: Tumor / Tumor/Blood ratio / Tumor/Muscle ratio: MDA-MB-435 tumor mice, i.v. 740 kBq
Procedure: (§4) All animal studies were carried out in compliance with Federal and local institutional rules for the conduct of animal experimentation. Female athymic nude mice (nu/nu) were obtained from Charles River Laboratories (Boston, Mass.) at 7-8 weeks old and kept under sterile conditions. The nude mice were inoculated subcutaneously in the right shoulder with 2×10^6 cultured C2C12/Ras cells or 5×10^6 MDA-MB-435 cells. When the tumors reach 0.5-0.8 cm in diameter, the tumor bearing mice were subjected to in vivo biodistribution studies. For biodistribution studies, the mice bearing C2C12/Ras or MDA-MB-435 tumor xenografts (n=3 for each group) were injected with 740 KBq (20 μCi) of ^64Cu labeled tracer through the tail vein and sacrificed at different time points post injection (p.i.). Tumor and normal tissues of interest were removed and weighed, and their radioactivity was measured in a gamma-counter. The radioactivity uptake in the tumor and normal tissues was expressed as a percentage of the injected radioactive dose per gram of tissue (% ID/g).
(§5) We next examined the overall biodistribution of ^64Cu-Z-FK(DOTA)-AOMK using athymic nude mice carrying subcutaneously grafted C2C12/Ras and MDA-MB-435 tumors. […] Importantly, we observed rapid accumulation of radioactivity in the C2C12/Ras tumors expressing high levels of cysteine cathepsins (0.35±0.13% ID/g at 0.5 h p.i.). This activity remained in the tumors resulting in an uptake of 0.27±0.05% ID/g at 24 h p.i. For the MDA-MB-435 tumors with lower cysteine cathepsin expression, tumor uptake was approximately 2 fold lower at each time point relative to the C2C12/Ras tumors (P<0.05). […] The highest radioactivity was found in the liver due to high endogenous expression of various cysteine cathepsins. Moderate renal accumulation was also observed at all times in both tumor models.
(§6) Data are expressed as the percentage administered activity (injected dose) per gram of tissue (% ID/g) after intravenous injection of 740 kBq (20 μCi) of ^64Cu-Z-FK(DOTA)-AOMK at 0.5, 2, and 24 h pi (n=3). Significant lower tumor uptake and tumor/blood, tumor/muscle ratio in MDA-MB-435 breast cancer (P<0.05) were observed.

C2C12/Ras tumors = assay: Biodistribution in nude mice bearing subcutaneous C2C12/Ras tumors; conditions: for Biodistribution: Blood / Biodistribution: Bone / Biodistribution: Brain / Biodistribution: Heart / Biodistribution: Intestines / Biodistribution: Kidney / Biodistribution: Liver / Biodistribution: Lung / Biodistribution: Muscle / Biodistribution: Pancreas / Biodistribution: Spleen / Biodistribution: Stomach / Biodistribution: Tumor / Tumor/Blood ratio / Tumor/Muscle ratio: C2C12/Ras tumor mice, i.v. 740 kBq
Procedure: as §4, §5, §6

MDA-MB-435 tumor = assay: MicroPET imaging of MDA-MB-435 tumor-bearing mice; conditions: MDA-MB-435 tumor, 1, 4 and 28 hours post injection
Source text: as §1, §2, §3

## Cc1cccc(C)c1C(=O)OCC(=O)[C@H](CCCCNC(=O)CN1CCN(CC(=O)[O-])CCN(CC(=O)O)CCN(CC(=O)[O-])CC1)NC(=O)[C@H](Cc1ccccc1)NC(=O)OCc1ccccc1.[64Cu+2] [^64Cu-Z-FK(DOTA)-AOMK]
C2C12/Ras tumor
  MicroPET tumor visualization / contrast: clearly visualized with good tumor to contralateral background contrast
MDA-MB-435 tumors; 2 h p.i.
  Biodistribution: Blood: 0.29 ± 0.01 % ID/g
  Biodistribution: Bone: 0.18 ± 0.06 % ID/g
  Biodistribution: Brain: 0.04 ± 0.01 % ID/g
  Biodistribution: Heart: 0.43 ± 0.09 % ID/g
  Biodistribution: Intestines: 1.95 ± 1.24 % ID/g
  Biodistribution: Kidney: 1.11 ± 0.05 % ID/g
  Biodistribution: Liver: 2.64 ± 0.08 % ID/g
  Biodistribution: Lung: 0.72 ± 0.08 % ID/g
  Biodistribution: Muscle: 0.06 ± 0.00 % ID/g
  Biodistribution: Pancreas: 0.25 ± 0.05 % ID/g
  Biodistribution: Spleen: 0.31 ± 0.05 % ID/g
  Biodistribution: Stomach: 0.45 ± 0.07 % ID/g
  Biodistribution: Tumor: 0.18 ± 0.00 % ID/g
  Tumor/Blood ratio: 0.61 and 0.61 ± 0.02
  Tumor/Muscle ratio: 3.03 and 3.03 ± 0.20
MDA-MB-435 tumors; 24 h p.i.
  Biodistribution: Blood: 0.28 ± 0.13 % ID/g
  Biodistribution: Bone: 0.20 ± 0.20 % ID/g
  Biodistribution: Brain: 0.05 ± 0.01 % ID/g
  Biodistribution: Heart: 0.42 ± 0.15 % ID/g
  Biodistribution: Intestines: 0.35 ± 0.08 % ID/g
  Biodistribution: Kidney: 0.63 ± 0.08 % ID/g
  Biodistribution: Liver: 1.37 ± 0.19 % ID/g
  Biodistribution: Lung: 0.47 ± 0.08 % ID/g
  Biodistribution: Muscle: 0.06 ± 0.02 % ID/g
  Biodistribution: Pancreas: 0.18 ± 0.11 % ID/g
  Biodistribution: Spleen: 0.31 ± 0.21 % ID/g
  Biodistribution: Stomach: 0.34 ± 0.29 % ID/g
  Biodistribution: Tumor: 0.14 ± 0.05 % ID/g
  Tumor/Blood ratio: 0.54 ± 0.12
  Tumor/Muscle ratio: 2.21 ± 0.34
MDA-MB-435 tumors; at each time point (2 h, 24 h), P<0.05
  Tumor uptake in MDA-MB-435 tumors, fold lower relative to C2C12/Ras tumors: approximately 2 fold
C2C12/Ras tumors; 0.5 h p.i.
  Biodistribution: Blood: 0.24 ± 0.07 % ID/g
  Biodistribution: Bone: 0.09 ± 0.02 % ID/g
  Biodistribution: Brain: 0.04 ± 0.03 % ID/g
  Biodistribution: Heart: 0.25 ± 0.02 % ID/g
  Biodistribution: Intestines: 1.84 ± 0.57 % ID/g
  Biodistribution: Kidney: 0.74 ± 0.29 % ID/g
  Biodistribution: Liver: 3.71 ± 1.04 % ID/g
  Biodistribution: Lung: 0.50 ± 0.17 % ID/g
  Biodistribution: Muscle: 0.06 ± 0.01 % ID/g
  Biodistribution: Pancreas: 0.25 ± 0.22 % ID/g
  Biodistribution: Spleen: 0.35 ± 0.24 % ID/g
  Biodistribution: Stomach: 0.63 ± 0.69 % ID/g
  Biodistribution: Tumor: 0.35±0.13 % ID/g
  Tumor/Blood ratio: 1.41 ± 0.32
  Tumor/Muscle ratio: 5.24 ± 1.35
C2C12/Ras tumors; 2 h p.i.
  Biodistribution: Blood: 0.24 ± 0.03 % ID/g
  Biodistribution: Bone: 0.10 ± 0.01 % ID/g
  Biodistribution: Brain: 0.02 ± 0.00 % ID/g
  Biodistribution: Heart: 0.30 ± 0.08 % ID/g
  Biodistribution: Intestines: 1.38 ± 0.54 % ID/g
  Biodistribution: Kidney: 0.67 ± 0.19 % ID/g
  Biodistribution: Liver: 3.59 ± 1.01 % ID/g
  Biodistribution: Lung: 0.59 ± 0.22 % ID/g
  Biodistribution: Muscle: 0.05 ± 0.01 % ID/g
  Biodistribution: Pancreas: 0.18 ± 0.08 % ID/g
  Biodistribution: Spleen: 0.24 ± 0.04 % ID/g
  Biodistribution: Stomach: 0.32 ± 0.06 % ID/g
  Biodistribution: Tumor: 0.30 ± 0.03 % ID/g
  Tumor/Blood ratio: 1.25 and 1.25 ± 0.21
  Tumor/Muscle ratio: 5.64 and 5.64 ± 0.98
C2C12/Ras tumors; 24 h p.i.
  Biodistribution: Blood: 0.28 ± 0.10 % ID/g
  Biodistribution: Bone: 0.14 ± 0.10 % ID/g
  Biodistribution: Brain: 0.05 ± 0.01 % ID/g
  Biodistribution: Heart: 0.46 ± 0.07 % ID/g
  Biodistribution: Intestines: 0.46 ± 0.04 % ID/g
  Biodistribution: Kidney: 0.72 ± 0.05 % ID/g
  Biodistribution: Liver: 1.86 ± 0.57 % ID/g
  Biodistribution: Lung: 0.65 ± 0.15 % ID/g
  Biodistribution: Muscle: 0.06 ± 0.02 % ID/g
  Biodistribution: Pancreas: 0.21 ± 0.06 % ID/g
  Biodistribution: Spleen: 0.42 ± 0.06 % ID/g
  Biodistribution: Stomach: 0.27 ± 0.11 % ID/g
  Biodistribution: Tumor: 0.27±0.05 % ID/g
  Tumor/Blood ratio: 0.99 ± 0.24
  Tumor/Muscle ratio: 4.07 ± 1.13
C2C12/Ras tumors; both tumor models, nude mice, i.v.
  Blood clearance: rapid clearance in blood
MDA-MB-435 tumor
  MicroPET tumor visualization / contrast: low tumor uptake and poor tumor to normal tissue contrast
